Data: patent US20230339981A1, “KRAS G12D MODULATING COMPOUNDS” (priority 2022, published 2023)

Columns and labels:
[1] = molecular target: GDP-loaded KRAS G12D (Homo sapiens (Human), UniProt P01116, G12D); test: KRAS G12D (GDP) biochemical assay (TR-FRET probe displacement); format: binding; settings: 2 hours
Procedure, shortened: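 Compound pre-incubated 30 min with GDP-loaded KRAS G12D in 50 mM Hepes pH 7.4, 150 mM NaCl, 5 mM MgCl2, 0.005% Tween-20, then Eu-streptavidin and TR-FRET probe added. After 2 h at room temperature, TR-FRET ratio read; IC50 is 50% ratio decrease, sigmoidal fit.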

[2] = test system: AsPC-1 (KRAS G12D) cells; test: 3D cell viability assay (spheroids, CellTiter-Glo 3D); format: cell-based; settings: Homo sapiens, ASPC1, 96 h, AsPC-1 cells, 3D spheroids, 4 days
Procedure, shortened: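 AsPC-1 cells (1000/well) in DMEM with 10% FBS formed spheroids over 3 days at 37 °C in ultra-low attachment plates, then were treated with 1:3 serial dilutions for 4 days. Viability read by CellTiter-Glo 3D luminescence; EC50 as concentration giving 50% signal decrease, sigmoidal fit.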

[3] = test system: GP2D (KRAS G12D) cells; test: 2D cell viability assay (CellTiter-Glo); format: cell-based; settings: GP2d, 96 h, 4 days
Procedure, shortened: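 GP2D (KRAS G12D) cells, 1000/well in RPMI + 10% FBS, were plated onto compound (1:3 DMSO series) and grown 4 days at 37 °C, 5% CO2 in 2D. CellTiter-Glo luminescence was read; EC50 is the concentration giving 50% signal decrease, from sigmoidal fit.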

Sequence of GDP-loaded KRAS G12D (P01116-2 other isoform, or with tags, fused parts or gaps G12D): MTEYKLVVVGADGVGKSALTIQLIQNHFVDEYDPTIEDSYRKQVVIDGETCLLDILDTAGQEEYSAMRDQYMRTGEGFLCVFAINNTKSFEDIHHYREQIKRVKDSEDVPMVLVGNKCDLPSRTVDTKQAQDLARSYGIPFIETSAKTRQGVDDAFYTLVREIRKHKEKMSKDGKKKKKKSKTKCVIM

Structure (SMILES): C#Cc1c(F)ccc2cccc(-c3nc4c5c(nc(OC[C@@]67CCCN6C[C@H](F)C7)nc5c3F)N3C[C@H]5CC[C@H](N5)[C@H]3[C@H](C)O4)c12 [Example 116, (5S,5aS,6S,9R)-2-(8-ethynyl-7-fluoronaphthalen-1-yl)-1-fluoro-12-(((2R,7aS)-2-fluorotetrahydro-1H-pyrrolizin-7a(5H)-yl)methoxy)-5-methyl-5a,6,7,8,9,10-hexahydro-5H-4-oxa-3,10a,11,13,14-pentaaza-6,9-methanonaphtho[1,8-ab]heptalene]
- IC50 [1]: 0.6 nM
- EC50 [2]: 25 nM
- EC50 [3]: 6 nM

Structure (SMILES): C#Cc1c(F)ccc2cc(O)cc(-c3nc4c5c(nc(OC[C@@]67CCCN6C[C@H](F)C7)nc5c3F)N3C[C@H]5CC[C@H](N5)[C@H]3CCCC4)c12 [Example 189, 5-ethynyl-6-fluoro-4-((7aR,8S,11R)-1-fluoro-14-(((2R,7aS)-2-fluorotetrahydro-1H-pyrrolizin-7a(5H)-yl)methoxy)-4,5,6,7,7a,8,9,10,11,12-decahydro-3,12a,13,15,16-pentaaza-8,11-methanocyclohepta[4,5]cyclonona[1,2,3-de]naphthalen-2-yl)naphthalen-2-ol]
- IC50 [1]: 0.1 nM
- EC50 [2]: 2.9 nM
- EC50 [3]: 0.6 nM

Structure (SMILES): C#Cc1c(F)ccc2cc(O)cc(-c3nc4c5c(nc(OC[C@@]67CCCN6C[C@H](F)C7)nc5c3F)N3C[C@H]5CC[C@H](N5)[C@H]3CO4)c12 [Example 2, 5-ethynyl-6-fluoro-4-((5aS,6S,9R)-1-fluoro-12-(((2R,7aS)-2-fluorotetrahydro-1H-pyrrolizin-7a(5H)-yl)methoxy)-5a,6,7,8,9,1O-hexahydro-5H-4-oxa-3,10a,11,13,14-pentaaza-6,9-methanonaphtho[1,8-ab]heptalen-2-yl)naphthalen-2-ol]
- IC50 [1]: 0.2 nM
- EC50 [2]: 42 nM
- EC50 [3]: 6 nM

Structure (SMILES): C#Cc1c(F)ccc2cc(O)cc(-c3cc4c5c(nc(OC[C@@]67CCCN6C[C@H](F)C7)nc5c3F)N3C[C@H]5CC[C@H](N5)[C@H]3CC4)c12 [Example 52, 5-ethynyl-6-fluoro-4-((1S,4R,14aR)-10-fluoro-8-(((2R,7aS)-2-fluorotetrahydro-1H-pyrrolizin-7a(5H)-yl)methoxy)-1,2,3,4,5,13,14,14a-octahydro-1,4-epiminoazepino[1′,2′:1,7]azepino[2,3,4-de]quinazolin-11-yl)naphthalen-2-ol]
- IC50 [1]: 0.1 nM
- EC50 [2]: 7 nM
- EC50 [3]: 1 nM

Structure (SMILES): C#Cc1c(F)ccc2cccc(-c3nc4c5c(nc(OC[C@@]67CCCN6C[C@H](F)C7)nc5c3F)N3C[C@H]5CC[C@H](N5)[C@H]3CO4)c12 [Example 4, (5aS,6S,9R)-2-(8-ethynyl-7-fluoronaphthalen-1-yl)-1-fluoro-12-(((2R,7aS)-2-fluorotetrahydro-1H-pyrrolizin-7a(5H)-yl)methoxy)-5a,6,7,8,9,10-hexahydro-5H-4-oxa-3,10a,11,13,14-pentaaza-6,9-methanonaphtho[1,8-ab]heptalene]
- IC50 [1]: 4 nM
- EC50 [2]: 92 nM
- EC50 [3]: 45 nM

Structure (SMILES): C#Cc1c(F)ccc2cc(O)cc(-c3nc4c5c(nc(OC[C@@]67CCCN6C[C@H](F)C7)nc5c3F)N3C[C@H]5CC[C@H](N5)[C@H]3CCO4)c12 [Example 123, 5-ethynyl-6-fluoro-4-((6aR,7S,10R)-1-fluoro-13-(((2R,7aS)-2-fluorotetrahydro-1H-pyrrolizin-7a(5H)-yl)methoxy)-5,6,6a,7,8,9,10,11-octahydro-4-oxa-3,11a,12,14,15-pentaaza-7,10-methanocyclohepta[4,5]cycloocta[1,2,3-de]naphthalen-2-yl)naphthalen-2-ol]
- IC50 [1]: < 0.1 nM
- EC50 [2]: 3 nM
- EC50 [3]: 0.5 nM

Structure (SMILES): C#Cc1c(F)ccc2cccc(-c3nc4c5c(nc(OC[C@@]67CCCN6C[C@H](F)C7)nc5c3F)N3C[C@H]5CC[C@H](N5)C3C[C@@H]4C)c12 (stereo in doubt) [Example 93, (4S,5aS,6S,9R)-2-(8-ethynyl-7-fluoronaphthalen-1-yl)-1-fluoro-12-(((2R,7aS)-2-fluorotetrahydro-1H-pyrrolizin-7a(5H)-yl)methoxy)-4-methyl-4,5,5a,6,7,8,9,10-octahydro-3,10a,11,13,14-pentaaza-6,9-methanonaphtho[1,8-ab]heptalene]
- IC50 [1]: 2.5 nM
- EC50 [2]: 82 nM
- EC50 [3]: 26.6 nM

Structure (SMILES): Oc1cc(-c2nc3c4c(nc(OC[C@@]56CCCN5C[C@H](F)C6)nc4c2F)N2C[C@H]4CC[C@H](N4)[C@H]2CO3)c2ccccc2c1 [Example 20, 4-((5aS,6S,9R)-1-fluoro-12-(((2R,7aS)-2-fluorotetrahydro-1H-pyrrolizin-7a(5H)-yl)methoxy)-5a,6,7,8,9,10-hexahydro-5H-4-oxa-3,10a,11,13,14-pentaaza-6,9-methanonaphtho[1,8-ab]heptalen-2-yl)naphthalen-2-ol]
- IC50 [1]: 7 nM
- EC50 [2]: > 1000 nM
- EC50 [3]: 210 nM

Structure (SMILES): C#Cc1c(F)ccc2cc(O)cc(-c3nc4c5c(nc(OCC6(CN7CCC8(CC7)CC8(F)F)CC6)nc5c3F)N3C[C@H]5CC[C@H](N5)[C@H]3CC4)c12 [Example 185, 4-((5aR,6S,9R)-12-((1-((1,1-difluoro-6-azaspiro[2.5]octan-6-yl)methyl)cyclopropyl)methoxy)-1-fluoro-4,5,5a,6,7,8,9,10-octahydro-3,10a,11,13,14-pentaaza[6,9]methanonaphtho[1,8-ab]heptalen-2-yl)-5-ethynyl-6-fluoronaphthalen-2-ol]
- IC50 [1]: 0.4 nM
- EC50 [2]: 23.1 nM
- EC50 [3]: 2.7 nM

Structure (SMILES): Oc1cc(-c2nc3c4c(nc(OC[C@@]56CCCN5C[C@H](F)C6)nc4c2F)N2C[C@H]4CC[C@H](N4)[C@H]2CO3)c2c(OC3CC3)c(F)ccc2c1 [Example 42, 5-cyclopropoxy-6-fluoro-4-((5aS,6S,9R)-1-fluoro-12-(((2R,7aS)-2-fluorotetrahydro-1H-pyrrolizin-7a(5H)-yl)methoxy)-5a,6,7,8,9,10-hexahydro-5H-4-oxa-3,10a,11,13,14-pentaaza-6,9-methanonaphtho[1,8-ab]heptalen-2-yl)naphthalen-2-ol]
- IC50 [1]: 2 nM
- EC50 [2]: 95 nM
- EC50 [3]: 28 nM

Structure (SMILES): C#Cc1c(F)ccc2cccc(-c3nc4c5c(nc(OC[C@@]67CCCN6C[C@H](F)C7)nc5c3F)N3C[C@H]5CC[C@H](N5)[C@H]3[C@@H](C)C4)c12 [Example 183, (5S,5aR,6S,9R)-2-(8-ethynyl-7-fluoronaphthalen-1-yl)-1-fluoro-12-(((2R,7aS)-2-fluorotetrahydro-1H-pyrrolizin-7a(5H)-yl)methoxy)-5-methyl-4,5,5a,6,7,8,9,10-octahydro-3,10a,11,13,14-pentaaza-6,9-methanonaphtho[1,8-ab]heptalene]
- IC50 [1]: 1.9 nM
- EC50 [2]: 270 nM
- EC50 [3]: 63 nM

Structure (SMILES): C#Cc1c(F)ccc2cc(O)cc(-c3nc4c5c(nc(OC[C@@]67CCCN6C[C@H](F)C7)nc5c3F)N3C[C@H]5CC[C@H](N5)[C@H]3CC4)c12 [Example 22, 5-ethynyl-6-fluoro-4-((5aR,6S,9R)-1-fluoro-12-(((2R,7aS)-2-fluorotetrahydro-1H-pyrrolizin-7a(5H)-yl)methoxy)-4,5,5a,6,7,8,9,10-octahydro-3,10a,11,13,14-pentaaza-6,9-methanonaphtho[1,8-ab]heptalen-2-yl)naphthalen-2-ol]
- IC50 [1]: 0.1 nM
- EC50 [2]: 2 nM
- EC50 [3]: 0.6 nM

Structure (SMILES): C#Cc1c(F)ccc2cc(O)cc(-c3nc4c5c(nc(OCC6(CN7CC8CC(C8)C7)CC6)nc5c3F)N3C[C@H]5CC[C@H](N5)[C@H]3CC4)c12 [Example 179, 4-((5aR,6S,9R)-12-((1-((3-azabicyclo[3.1.1]heptan-3-yl)methyl)cyclopropyl)methoxy)-1-fluoro-4,5,5a,6,7,8,9,10-octahydro-3,10a,11,13,14-pentaaza-6,9-methanonaphtho[1,8-ab]heptalen-2-yl)-5-ethynyl-6-fluoronaphthalen-2-ol]
- IC50 [1]: 0.1 nM
- EC50 [2]: 7.7 nM
- EC50 [3]: 0.4 nM

Structure (SMILES): C#Cc1c(F)ccc2cc(O)cc(-c3nc4c5c(nc(OC[C@@]67CCCN6C[C@H](F)C7)nc5c3F)N3C[C@H]5CC[C@H](N5)C3C[C@H]4C)c12 (stereo in doubt) [Example 96, 5-ethynyl-6-fluoro-4-((4R,5aS,6S,9R)-1-fluoro-12-(((2R,7aS)-2-fluorotetrahydro-1H-pyrrolizin-7a(5H)-yl)methoxy)-4-methyl-4,5,5a,6,7,8,9,10-octahydro-3,10a,11,13,14-pentaaza-6,9-methanonaphtho[1,8-ab]heptalen-2-yl)naphthalen-2-ol]
- IC50 [1]: 0.3 nM
- EC50 [2]: 1.9 nM
- EC50 [3]: 0.5 nM

Structure (SMILES): C#Cc1c(F)ccc2cc(O)cc(-c3nc4c5c(nc(OC[C@@]67CCCN6[C@H](CF)CC7)nc5c3F)N3C[C@H]5CC[C@H](N5)[C@H]3CC4)c12 [Example 165, 5-ethynyl-6-fluoro-4-((5aR,6S,9R)-1-fluoro-12-(((3S,7aS)-3-(fluoromethyl)tetrahydro-1H-pyrrolizin-7a(5H)-yl)methoxy)-4,5,5a,6,7,8,9,10-octahydro-3,10a,11,13,14-pentaaza-6,9-methanonaphtho[1,8-ab]heptalen-2-yl)naphthalen-2-ol]
- IC50 [1]: < 0.1 nM
- EC50 [2]: 3.9 nM
- EC50 [3]: 0.7 nM
